Measurements taken from patent US7781175B2, “Method of screening compounds which alter the binding properties of GPR39, and homologs thereof, to bile acid” (Takeda Pharmaceutical Company Limited, priority 2004, dated 2010).

Tests used:
Format in all cases: cell-based
[1] = test system: pAKKO-111H transfected cells (control); experiment: SRE-luciferase reporter assay in pAKKO-111H transfected HeLa cells for control; settings: for Luciferase Activity (cps), pAKKO-111H (control): pAKKO-111H transfected HeLa cells, 4 hours, 0 μM baseline 2042
Protocol: (§1) First, cDNA encoding G protein-coupled receptor protein, the GPR39 (SEQ ID NO: 1) prepared by the method publicly known was inserted into pAKKO-111H (the same plasmid vector as pAKKO-1.111H described in Biochem. Biophys. Acta, Hinuma, S. et al., 1219, 251-259, 1994). Using the expression plasmid for animal cells thus obtained, Escherichia coli JM109 was transfected and the colonies obtained were isolated and cultured. Thereafter, large scale plasmid preparation was carried out using QIAGEN Plasmid Maxi Kit (Qiagen). Furthermore, the pSRE-Luc reporter plasmid (Invitrogen) ligated with a luciferase gene as a reporter at the downstream of serum response element (SRE), and expression vector plasmids for human GαoA, human Gβ1 and human Gγ2, which are a kind of G proteins, were prepared in a similar manner.
(§2) HeLa cells as host cells for transfecting the G protein-coupled receptor protein expression plasmid and the reporter plasmid were plated on a 384-well assay plate (COSTAR 3704) at 4000 cells/well in a culture volume of 25 μl, followed by incubation overnight. The medium used was DMEM (Invitrogen) supplemented with 10% fetal calf serum and 1% MEM non-essential amino acids solution (DMEM/NEAA).
(§3) Each plasmid was added to and mixed with 240 μl of Opti-MEM-I (Invitrogen) in a proportion of 1 μl of the protein expression plasmid or, for comparison, expression vector pAKKO-111H without DNA encoding the receptor protein in place of an expression plasmid of the receptor, 9 μl of the reporter plasmid and 1 μl each of the G protein-coupled receptor protein expression plasmid GαoA, Gβ1 or Gγ2. […]
(§4) The HeLa cells prepared in EXAMPLE 1 were washed twice with fetal calf serum-free DMEM/NEAA (assay medium) and then cultured in the same assay medium at 37° C. under 5% CO2 for 2 hours. […] After the cells were lysed and thoroughly mixed with the substrate, the chemiluminescence level corresponding to the expression induction level of the reporter gene in each well was measured on the plate reader (EnVision™, Perkin-Elmer).

[2] = target: T1, GPR39 (SEQ ID NO: 1) (Homo sapiens, UniProt O43194); experiment: SRE-luciferase reporter assay for ligand activity in GPR39-expressed HeLa cells; settings: for Increased Luciferase Activity (cps) by TLCA in GPR39-Expressed Cells: GPR39-expressed HeLa cells, 4 hours, 0 μM baseline 3574
T1 construct: expressed in transfected cells; host or cells: HeLa cells, transient transfection (vector pAKKO-111H)
T1 sequence (O43194 1-453): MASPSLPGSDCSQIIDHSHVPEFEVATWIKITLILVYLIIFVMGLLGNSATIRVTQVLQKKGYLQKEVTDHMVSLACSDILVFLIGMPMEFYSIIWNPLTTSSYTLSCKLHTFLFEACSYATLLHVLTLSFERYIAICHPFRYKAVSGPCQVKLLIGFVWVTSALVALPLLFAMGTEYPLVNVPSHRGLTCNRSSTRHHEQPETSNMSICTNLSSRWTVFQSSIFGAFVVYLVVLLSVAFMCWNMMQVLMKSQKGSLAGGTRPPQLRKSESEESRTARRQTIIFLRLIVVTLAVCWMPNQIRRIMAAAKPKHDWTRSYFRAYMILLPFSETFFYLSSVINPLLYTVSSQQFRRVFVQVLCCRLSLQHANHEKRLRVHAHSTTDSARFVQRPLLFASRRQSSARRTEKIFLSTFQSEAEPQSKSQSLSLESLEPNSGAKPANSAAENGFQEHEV
Protocol: as §1, §2, §3, §4

[3] = test system: GPR39-expressed cell line UM-UC-3; experiment: IL-8 secretion from GPR39-expressed cell line UM-UC-3, quantified by EIA; settings: 500 μM, 4 hours
Protocol: Using the GPR39-expressed cell line UM-UC-3 (Dainippon Pharmaceutical), effects by the addition of bile acids as the GPR39 agonist were examined.
On the day before assay, UM-UC-3 was cultured until preconfluent in MINIMUM ESSENTIAL MEDIUM (WITH EARLE'S SALTS, WITH L-GLUTAMINE) (GIBCO BRL) supplemented with 10% FCS and MEM NON-ESSENTIAL AMINO ACIDS (GIBCO BRL), washed with PBS, detached using trypsin, centrifuged for recovery and then suspended in a medium to 3×10^6 cells/ml. After a 100 μl aliquot was dispensed into each well of a 96-well plate (Falcon), followed by incubation overnight in a CO2 incubator.
On the assay day, after the medium for the cells prepared on the preceding day was removed, the cells were washed with MEM NON-ESSENTIAL AMINO ACIDS-containing MINIMUM ESSENTIAL MEDIUM (WITH EARLE'S SALTS, WITH L-GLUTAMINE). A […] was further charged in each well, followed by incubation […] at 37° C. in a CO2 incubator. Subsequently, a 100 μl aliquot of MEM NON-ESSENTIAL AMINO ACIDS-containing MINIMUM ESSENTIAL MEDIUM (WITH EARLE'S SALTS, WITH L-GLUTAMINE), to which various test samples were added, was dispensed into each well, followed by incubation […]. After the culture supernatant was recovered, IL-8 contained in each sample was quantified by EIA (Amersham).

| Structure (SMILES) | luciferase activity in the pAKKO-111H transfected cells for control (in words) ([1]; TLCA added) | Luciferase Activity (cps), pAKKO-111H (control) ([1]; TLCA level 5 μM) | Luciferase Activity (cps), pAKKO-111H (control) ([1]; TLCA level 20 μM) | luciferase activity in the GPR39-expressed cells (in words) ([2]; TLCA 5 μM or 20 μM) | Increased Luciferase Activity (cps) by TLCA in GPR39-Expressed Cells ([2]; TLCA level 5 μM) | Increased Luciferase Activity (cps) by TLCA in GPR39-Expressed Cells ([2]; TLCA level 20 μM) | IL-8 accumulated in culture supernatant compared to absence of the conjugate [3] |
| --- | --- | --- | --- | --- | --- | --- | --- |
| C[C@H](CCC(=O)NCCS(=O)(=O)[O-])[C@H]1CC[C@H]2[C@@H]3CC[C@@H]4C[C@H](O)CC[C@]4(C)[C@H]3CC[C@]12C.[Na+] [TLCA, sodium taurolithocholate] | any marked increase of the activity was not detected | 2214 cps | 2542 cps | increased luciferase activity | 5977 cps | 8114 cps |  |
| C[C@H](CCC(=O)NCCS(=O)(=O)O)[C@H]1CC[C@H]2[C@@H]3CC[C@@H]4C[C@H](O)CC[C@]4(C)[C@H]3C[C@H](O)[C@]12C [taurine conjugate of deoxycholic acid] |  |  |  |  |  |  | approximately twice as much |
